Reference: ChEMBL document CHEMBL4483862, “Open-source discovery of chemical leads for next-generation chemoprotective antimalarials” (2018)

Test system: Plasmodium berghei
Experiment: Luciferase/luciferin-expressing antifolate-resistant parasites were used to infect a culture of HepG2 cells that were pre-incubated with compounds. Infected hepatocytes emit light due to the luciferase reaction. Assay results are presented as the percent inhibition of light emission compared to control. […]
Type: functional
Settings: sporozoite; for IC90: read-out: LUCIFERASE INFECTION ASSAY - IC90
[1] = read-out: LUCIFERASE INFECTION ASSAY - IC50

Row | Structure (SMILES) | IC90 [µM] | IC50 [1] [µM] | further results
1 | CCC(C)NCCCCOc1cc(C(C)C)ccc1C (stereo not given) | > 10 |  | IC50 (PBLUC_HILL_SLOPE 11.7, PBLUC_R_SQUARED 0.0741, read-out: LUCIFERASE INFECTION ASSAY - IC50): > 10 µM
2 | Cn1c(Oc2cccc3c2OC(C)(C)C3)c(C#N)c(=O)n(C)c1=O | 0.188 |  | IC50 (PBLUC_HILL_SLOPE 0.981, PBLUC_R_SQUARED 0.556, read-out: LUCIFERASE INFECTION ASSAY - IC50): 0.02 µM
3 | CC(N=C(S)Nc1ccc(OC(F)F)c(Cl)c1)C(C)(C)C (stereo not given) | > 10 |  | IC50 (HEPG2TOX_HILL_SLOPE 8.22, HEPG2TOX_R_SQUARED 0.242, PBLUC_HILL_SLOPE 12.6, PBLUC_R_SQUARED 0.772, read-out: LUCIFERASE INFECTION ASSAY - IC50): 8.6 µM
4 | Fc1ccc(COc2ccc(Cl)cc2CNCc2ccccn2)cc1 | > 9.25 |  | IC50 (PBLUC_HILL_SLOPE 3.23, PBLUC_R_SQUARED 0.405, read-out: LUCIFERASE INFECTION ASSAY - IC50): 6.55 µM
5 | O=C(/C=C/c1cccs1)N1CCN(S(=O)(=O)c2ccc(Cl)c(C(F)(F)F)c2)CC1 | > 10 |  | IC50 (PBLUC_HILL_SLOPE 2.7, PBLUC_R_SQUARED 0.367, read-out: LUCIFERASE INFECTION ASSAY - IC50): 5.47 µM
6 | N#Cc1ccsc1NC(=O)CN1CCN(CC(=O)Nc2ccc(Cl)c(C(F)(F)F)c2)CC1 | > 10 |  | IC50 (PBLUC_HILL_SLOPE 1.73, PBLUC_R_SQUARED 0.28, read-out: LUCIFERASE INFECTION ASSAY - IC50): 5.03 µM
7 | C/C(=N\Nc1nc2ccccc2[nH]1)c1ccc2c(c1)OCO2 | 4.99 | 4.04 | 
8 | OCc1cccc(Nc2nc(-c3ccsc3)nc3ccccc23)c1 | > 10 | > 10 | 
9 | CN(C)n1cccc1/C=C(\C#N)S(C)(=O)=O | > 13.8 | > 13.8 | 
10 | Clc1ccc(Nc2nccc3nc(-c4ccccc4)[nH]c23)cc1 | > 10 |  | IC50 (PBLUC_HILL_SLOPE 3.81, PBLUC_R_SQUARED 0.353, read-out: LUCIFERASE INFECTION ASSAY - IC50): 6.7 µM
11 | c1csc(-c2cnc3sc(NCCc4ccncc4)nn23)c1 | > 10.1 |  | IC50 (FFLUC_HILL_SLOPE 0.665, FFLUC_R_SQUARED 0.0104, HEPG2TOX_HILL_SLOPE 4.1, HEPG2TOX_R_SQUARED 0.712, read-out: LUCIFERASE INFECTION ASSAY - IC50): > 10.1 µM
12 | O=C(CSc1nnc(Nc2ccccc2)s1)Nc1ccccc1N1CCCC1 | > 10 | > 10 | 
13 | CS(=O)(=O)c1ccc(-c2cnc(N)c(-c3cccc(O)c3)c2)cc1 | 3.71 |  | IC50 (PBLUC_HILL_SLOPE 17.6, PBLUC_R_SQUARED 0.332, read-out: LUCIFERASE INFECTION ASSAY - IC50): 3.27 µM
14 | CCOC(=O)c1[nH]c2c(c1C)C(=O)/C(=C/c1ccc(Cl)cc1)CC2 | > 10 | > 10 | 
15 | CCc1ccc(/C=C/c2ccc3cccc(O)c3n2)cc1 | 0.313 |  | IC50 (FFLUC_HILL_SLOPE 27.9, FFLUC_R_SQUARED 0.597, HEPG2TOX_HILL_SLOPE 1.09, HEPG2TOX_R_SQUARED 0.82, PBLUC_HILL_SLOPE 3.2, PBLUC_R_SQUARED 0.533, read-out: LUCIFERASE INFECTION ASSAY - IC50): 0.157 µM
16 | C[C@H](NC(=O)[C@@H]1CSC2c3ccccc3C(=O)N21)C(=O)NC1CCCCC1 (stereo not given in full) | > 8.52 | > 8.52 | 
17 | Cc1cccc(C(=O)Nc2nc3ccccn3c2C(=O)NC2CCCC2)c1 | 4.69 |  | IC50 (HEPG2TOX_HILL_SLOPE 8.83, HEPG2TOX_R_SQUARED 0.45, PBLUC_HILL_SLOPE 2.41, PBLUC_R_SQUARED 0.415, read-out: LUCIFERASE INFECTION ASSAY - IC50): 1.88 µM
18 | COC(=O)c1cc(-c2ccc(C)cc2)nc2onc(C(C)C)c12 | > 10 | > 10 | 
19 | CCCn1c(-c2cccs2)nc2c(c(=O)c3ccccc3n2C)c1=O | 3.69 |  | IC50 (PBLUC_HILL_SLOPE 10.5, PBLUC_R_SQUARED 0.782, read-out: LUCIFERASE INFECTION ASSAY - IC50): 3 µM
20 | CNc1ccc2ncc(-c3ccc(OC)nc3)n2n1 | 12.8 |  | IC50 (HEPG2TOX_HILL_SLOPE 1.61, HEPG2TOX_R_SQUARED 0.963, PBLUC_HILL_SLOPE 2.26, PBLUC_R_SQUARED 0.378, read-out: LUCIFERASE INFECTION ASSAY - IC50): 4.85 µM
21 | CCCn1c(NC(=O)c2sc3ccccc3c2Cl)nc2ccccc21 | > 10 | > 10 | 
22 | N#Cc1c(SCc2ccccc2)nc2c(c1-c1cccs1)CCCC2 | > 9.1 |  | IC50 (FFLUC_HILL_SLOPE 16.1, FFLUC_R_SQUARED 0.0835, PBLUC_HILL_SLOPE 1.89, PBLUC_R_SQUARED 0.544, read-out: LUCIFERASE INFECTION ASSAY - IC50): 3.48 µM
23 | CCOC(=O)c1sc(SC)c2c1CCc1c[nH]nc1-2 | > 11.2 |  | IC50 (FFLUC_HILL_SLOPE 10.3, FFLUC_R_SQUARED 0.371, read-out: LUCIFERASE INFECTION ASSAY - IC50): > 11.2 µM

Row | Structure (SMILES) | IC90 [µM] | IC50 [1] [µM] | further results
24 | CSc1nnnn1-c1cccc(NC(=O)c2cc(-c3cc(C)oc3C)nc3c2cnn3C(C)C)c1 | > 10 |  | IC50 (FFLUC_HILL_SLOPE 1.52, FFLUC_R_SQUARED 0.0983, PBLUC_HILL_SLOPE 1.97, PBLUC_R_SQUARED 0.288, read-out: LUCIFERASE INFECTION ASSAY - IC50): 5.3 µM
25 | O=C1C(=O)N(Cc2cc3c(cc2Cl)OCO3)c2ccc(Cl)cc21 | > 9.42 |  | IC50 (FFLUC_HILL_SLOPE 2.77, FFLUC_R_SQUARED 0.777, PBLUC_HILL_SLOPE 11.7, PBLUC_R_SQUARED 0.0264, read-out: LUCIFERASE INFECTION ASSAY - IC50): 8.5 µM
26 | N#C/C(=N\Nc1ccc(F)cc1)S(=O)(=O)c1ccc(Cl)cc1 | 4.33 |  | IC50 (FFLUC_HILL_SLOPE 1.6, FFLUC_R_SQUARED 0.662, HEPG2TOX_HILL_SLOPE 1.9, HEPG2TOX_R_SQUARED 0.994, PBLUC_HILL_SLOPE 9.61, PBLUC_R_SQUARED 0.336, read-out: LUCIFERASE INFECTION ASSAY - IC50): 3.44 µM
27 | Cc1nc(Nc2ccc(Cl)cc2)sc1C(=O)Nc1ccccc1 | > 10 | > 10 | 
28 | Cc1c(Sc2ccc(F)cc2)c2ccccn2c1/C(=N\S(=O)(=O)c1cccs1)c1ccccc1 | > 10 | > 10 | 
29 | Cn1ccnc1SCC(=O)Nc1ccc(C(=O)Nc2ncccc2O)cc1 | 5.1 |  | IC50 (PBLUC_HILL_SLOPE 5, PBLUC_R_SQUARED 0.401, read-out: LUCIFERASE INFECTION ASSAY - IC50): 3.28 µM
30 | CN(/N=C/c1cc(Cl)cc(Cl)c1O)c1ccc(C(F)(F)F)cc1[N+](=O)[O-] | > 8.09 | > 8.09 | 
31 | O=c1cc(Nc2ccc(F)cc2)c2ccccc2o1 | 12.8 |  | IC50 (PBLUC_HILL_SLOPE 3.61, PBLUC_R_SQUARED 0.0806, read-out: LUCIFERASE INFECTION ASSAY - IC50): 6.97 µM
32 | CS(=O)(=O)N1CCCc2cc(-c3csc(Nc4ccccn4)n3)ccc21 | 2.51 |  | IC50 (HEPG2TOX_HILL_SLOPE 15.9, HEPG2TOX_R_SQUARED 0.84, PBLUC_HILL_SLOPE 1.6, PBLUC_R_SQUARED 0.55, read-out: LUCIFERASE INFECTION ASSAY - IC50): 0.637 µM
33 | O=S(=O)(c1ccc(Cl)cc1)c1nc(/C=C/c2ccccc2)oc1NCc1ccco1 | 9.82 |  | IC50 (PBLUC_HILL_SLOPE 32.9, PBLUC_R_SQUARED 0.0875, read-out: LUCIFERASE INFECTION ASSAY - IC50): 9.18 µM
34 | O=[N+]([O-])c1c(Sc2ccc(Cl)cc2)ccc2nsnc12 | 8.49 |  | IC50 (FFLUC_HILL_SLOPE 1.96, FFLUC_R_SQUARED 0.577, HEPG2TOX_HILL_SLOPE 12.8, HEPG2TOX_R_SQUARED 0.787, PBLUC_HILL_SLOPE 2.81, PBLUC_R_SQUARED 0.465, read-out: LUCIFERASE INFECTION ASSAY - IC50): 3.88 µM
35 | COc1cc(NC(=O)c2cc(N3CCN(c4ccccn4)CC3)ncn2)cc(OC)c1OC | 1.61 |  | IC50 (HEPG2TOX_HILL_SLOPE 1.23, HEPG2TOX_R_SQUARED 0.824, PBLUC_HILL_SLOPE 2.21, PBLUC_R_SQUARED 0.872, read-out: LUCIFERASE INFECTION ASSAY - IC50): 0.596 µM
36 | O=S(=O)(c1ccccc1NCc1ccnc(N2CCCC2)c1)C(F)(F)F | > 10 |  | IC50 (HEPG2TOX_HILL_SLOPE 1.99, HEPG2TOX_R_SQUARED 0.873, PBLUC_HILL_SLOPE 3.99, PBLUC_R_SQUARED 0.0495, read-out: LUCIFERASE INFECTION ASSAY - IC50): 6.48 µM
37 | COC(=O)c1scc(S(=O)(=O)c2ccc(Cl)cc2)c1C | > 9.98 | > 9.98 | 
38 | FC(F)(F)c1cc(Nc2nc(-c3cc(-c4ccc(Cl)cc4Cl)no3)cs2)cc(C(F)(F)F)c1 | > 6.29 | > 6.29 | 
39 | CCN(CC)CCNC(=O)c1ccc(Nc2ccn3nc(-c4ccc(Cl)cc4)cc3n2)cc1 | > 7.13 | > 7.13 | 
40 | CCn1cc(C(=O)N[C@@H](C)C(=O)OC)c(=O)c2cc3c(cc21)OCO3 | > 9.53 |  | IC50 (FFLUC_HILL_SLOPE 11.2, FFLUC_R_SQUARED 0.325, read-out: LUCIFERASE INFECTION ASSAY - IC50): > 9.53 µM
41 | CCN(CC)c1ccc(N=C2C=CC(=O)c3ccccc32)c(C)c1 | 4.59 |  | IC50 (FFLUC_HILL_SLOPE 15.8, FFLUC_R_SQUARED 0.584, HEPG2TOX_HILL_SLOPE 2.04, HEPG2TOX_R_SQUARED 0.961, PBLUC_HILL_SLOPE 2.09, PBLUC_R_SQUARED 0.781, read-out: LUCIFERASE INFECTION ASSAY - IC50): 1.61 µM
42 | CCc1cccc(NC(=O)C[n+]2c3n(c4ccc(C(F)(F)F)cc42)CCCCC3)c1 | 8.61 | 2.8 | 
43 | NC(=O)c1cccc(CNc2cnn(CCOc3ccc(Cl)cc3)c(=O)c2Cl)c1 | > 10 | 2.11 | 
44 | CN(CCOC(=O)Nc1cc(Cl)cc(Cl)c1)c1ncc(C(F)(F)F)cc1Cl | > 7.46 | > 7.46 | 
45 | CSc1nc(N/C=C2/C(=O)c3ccccc3N(C)S2(=O)=O)nc(N(C)C)n1 | > 8.12 | > 8.12 | 
